These results are taken from ChEMBL document CHEMBL4177601, “Dual antioxidant structures with potent anti-inflammatory, hypolipidemic and cytoprotective properties” (Bioorg Med Chem Lett, 2017).

The source made the active and inactive calls. The calls are words filed in the database; no cut-off is given here.

For experiment [1], the system named is Mus musculus. The experiment is described as follows: Anti-inflammatory activity in Balb/C mouse assessed as reduction in carrageenan-induced hind paw oedema at 0.15 mmol/kg, ip pretreated for 1 hr followed by carrageenan challenge. Format: functional. Also noted: scale not given: the % may be the effect or the level left.
A short description of experiment [2]: Antioxidant activity assessed as DPPH radical scavenging activity at 25 to 200 uM measured after 30 mins. The format is functional.
For experiment [3], the system named is Liver. The experiment in a line: Antioxidant activity in rat hepatic microsomes assessed as inhibition of FeSO4-induced lipid peroxidation at 1 to 1000 uM measured after 45 mins by spectrophotometry. The format is functional. Particulars: microsome.
Experiment [4] is described as follows: Antioxidant activity assessed as DPPH radical scavenging activity at 200 uM measured after 30 mins relative to control. The format is functional.
A short description of experiment [5]: Antioxidant activity assessed as DPPH radical scavenging activity at 50 uM measured after 30 mins relative to control. The format is functional.
A short description of experiment [6]: Antioxidant activity assessed as DPPH radical scavenging activity at 100 uM measured after 30 mins relative to control. Format: functional.
In experiment [7] the test system is Rattus norvegicus. The experiment is described as follows: Anti-inflammatory activity in rat assessed as reduction in carrageenan-induced hind paw oedema at 0.15 mmol/kg, ip pretreated for 5 mins followed by carrageenan challenge measured after 3.5 hrs. The format is functional. Also noted: scale not given: the % may be the effect or the level left.
In experiment [8] the test system is Liver. The experiment is described as follows: Antioxidant activity in rat hepatic microsomes assessed as inhibition of FeSO4-induced lipid peroxidation measured after 45 mins by spectrophotometry. Format: functional, microsome. Particulars: 0.75 h.
Experiment [9] deals with Lipoxygenase (Glycine max, UniProt Q39829). The experiment in a line: Inhibition of soybean lipoxygenase using sodium linoleate as substrate measured after 7 mins.
Experiment [10] deals with Rattus norvegicus. The experiment in a line: Protection against paracetamol-induced liver injury in rat assessed as reduction in plasma LDH level at 1 mmol/kg, po measured at 24 hrs post paracetamol challenge relative to control. Details: scale not given: the % may be the effect or the level left. Format: functional.
The subject of experiment [11] is Rattus norvegicus. The experiment is described as follows: Protection against paracetamol-induced liver injury in rat assessed as reduction in plasma GPT level at 1 mmol/kg, po measured at 24 hrs post paracetamol challenge relative to control. The format is functional. Details: scale not given: the % may be the effect or the level left.
Experiment [12] deals with Rattus norvegicus. The experiment is described as follows: Hypolipidemic activity in triton WR1339-induced rat model of hyperlipidemia assessed as reduction in plasma total cholesterol level at 150 umol/kg, ip administered after 1 hr post triton WR1339 challenge measured after 24 hrs relative to control. The format is functional. Also noted: scale not given: the % may be the effect or the level left.

For experiment [13], the system named is Rattus norvegicus. The experiment is described as follows: Hypolipidemic activity in triton WR1339-induced rat model of hyperlipidemia assessed as reduction in plasma total triglyceride level at 150 umol/kg, ip administered after 1 hr post triton WR1339 challenge measured after 24 hrs relative to control. Format: functional. Also noted: scale not given: the % may be the effect or the level left.

Experiment [14] relates to Rattus norvegicus. The experiment is described as follows: Protection against paracetamol-induced liver injury in rat assessed as reduction in plasma GOT level at 1 mmol/kg, po measured at 24 hrs post paracetamol challenge relative to control. Format: functional. Also noted: scale not given: the % may be the effect or the level left.
The test system of experiment [15] is Liver. The experiment in a line: Potency index, ratio of trolox IC50 to test compound IC50 for inhibition FeSO4-induced lipid peroxidation in rat hepatic microsomes. Particulars: microsome. The format is functional.

For `CCOC(=O)[C@@H](N)CS`, in [1], the Activity is on record as 25%.

`NCCS` [CYSTEAMINE]: the Activity in experiment [1] turned out to be 15%.

On to `CCOC(=O)C(CSSCC(NC(=O)/C=C/c1ccccc1)C(=O)OCC)NC(=O)/C=C/c1ccccc1` (stereo unspecified), for which, in [2], the outcome was Active. For the same compound, the inhibition entry in experiment [3] is “inactive”.

In the case of `O=C(/C=C/c1ccccc1)NCCS`, the Activity was found to be 86% in [4], 31% in [5], 59% in [6] and 38% in experiment [7]. In addition, the inhibition entry in [3] was “inactive”.

`O=C(/C=C/c1ccccc1)NCCSSCCNC(=O)/C=C/c1ccccc1`: the result in experiment [2] was Active. Besides, the inhibition result in [3] is “inactive”. For the same compound, in [7], the Activity is given as 42%.

For the compound `CC(C)(C)c1cc(C(=O)O)cc(C(C)(C)C)c1O`, the IC50 in experiment [8] stood at 250 µM.

For the compound `CC(C)(C)c1cc(/C=C/C(=O)NCCS)cc(C(C)(C)C)c1O`, the IC50 in [8] stood at 30 µM; in experiment [9] it was 160 µM. Moreover, the Activity in experiment [4] turned out to be 92%; in experiment [5], 34%; in experiment [6], 60%; in [7] it was 67%.

Turning to `CCOC(=O)C(CS)NC(=O)c1cc(C(C)(C)C)c(O)c(C(C)(C)C)c1` (stereo unspecified), the IC50 is 200 µM in experiment [8] and 67 µM in experiment [9]. Further, the Activity in experiment [4] turned out to be 85%; in [5], 23%; in experiment [6] it was 46%; in [7] it was 59%.

For `CCOC(=O)C(CS)NC(=O)C1(C)CCc2c(C)c(O)c(C)c(C)c2O1` (stereo unspecified), the IC50 in experiment [8] turned out to be 3 µM. Moreover, the Activity in [4] is 93%; in [10], 78%; in [11], 64%; in experiment [12], 73%; in [5] it was 61%; in experiment [13] it was 72.3%. The Activity in [14] is 70%; in experiment [6] it was 91%; in experiment [7], 39%. Moreover, the Ratio IC50 in [15] was 10.

Regarding `CCOC(=O)C(CS)NC(=O)/C=C/c1ccccc1` (stereo unspecified), the Activity in [4] was found to be 86%; in [5], 27%; in experiment [6] it was 42%; in experiment [7], 35%. The inhibition entry in [3] is “inactive”.

On to `CCOC(=O)C(CS)NC(=O)/C=C/c1cc(C(C)(C)C)c(O)c(C(C)(C)C)c1` (stereo unspecified), for which the values for the IC50 in experiment [8] and in [9] were 40 µM and 135 µM, respectively. Besides, the Activity in experiment [4] came out at 96%; in experiment [5], 37%; in experiment [6], 70%; in experiment [7] it was 61%.

Turning to `Cc1c(C)c2c(c(C)c1O)CCC(C)(C(=O)O)O2` (stereo unspecified) [TROLOX], the IC50 in experiment [8] was found to be 25 µM.

As for `CCOC(=O)C(CSSCC(NC(=O)c1cc(C(C)(C)C)c(O)c(C(C)(C)C)c1)C(=O)OCC)NC(=O)c1cc(C(C)(C)C)c(O)c(C(C)(C)C)c1` (stereo unspecified), the outcome in experiment [2] was Active. The inhibition entry in [3] is “inactive”. Moreover, in [7], the Activity was 36%.

For the compound `CC(C)Cc1ccc(C(C)C(=O)O)cc1` (stereo unspecified) [IBUPROFEN], in [7], the Activity came to 36%.

Regarding `CC(C)(C)c1cc(C(=O)NCCSSCCNC(=O)c2cc(C(C)(C)C)c(O)c(C(C)(C)C)c2)cc(C(C)(C)C)c1O`, the outcome in experiment [2] was Active. For the same compound, in experiment [3], the inhibition entry is “inactive”.

Regarding `CC(C)(C)c1cc(C(=O)NCCS)cc(C(C)(C)C)c1O`, the IC50 amounted to 45 µM in experiment [8] and 121 µM in [9]. Besides, the Activity in [4] was 85%; in experiment [5], 20%; in experiment [6], 45%; in experiment [7], 87%.

In the case of `Cc1c(C)c2c(c(C)c1O)CCC(C)(C(=O)NCCS)O2` (stereo unspecified), in experiment [8], the IC50 amounted to 1.6 µM. The Activity in experiment [4] was found to be 93%; in experiment [10] it was 70%; in experiment [11], 15%; in [12], 67.1%; in experiment [5] it was 61%; in experiment [13], 47.3%. Moreover, the Activity in experiment [14] stood at 26%; in experiment [6] it was 92%; in experiment [7], 67%. In experiment [15], the Ratio IC50 came to 10.
